Tests used:
BBZDR/Wor rats [1] = experiment: Environmental induction of diabetes in BBZDR/Wor rats (during initial development of the strain); assay type: in vivo, rat
Description: (§1) During the initial development of the BBZDR/Wor strain, we performed several experiments to determine whether BBZDR/Wor animals are susceptible to other environmental triggers of diabetes. […] Lean and obese BBZDR/Wor rats were treated with either the TLR3 ligand, poly I:C, or poly I:C and KRV and the incidence of diabetes was determined. […] In contrast, 35-64% of animals treated with poly I:C+KRV became diabetic. We consistently observed a higher incidence of diabetes among lean BBZDR/Wor animals as compared to obese rats. More experiments will need to be performed to determine whether these differences are statistically significant. We recently revisited the poly I:C experiments in the now, fully-inbred (>40 generations) BBZDR/Wor rat line. […] In contrast to our previous results, we observed that 40% of the lean animals and 50% of the obese females developed hyperglycemia.

BBZDR/Wor rats [2] = experiment: Preliminary poly I:C experiment in fully-inbred BBZDR/Wor rat line, onset of diabetes; assay type: in vivo; details: fully-inbred (>40 generations) line, 5 μg/gm body weight, 3× a week
Description: as §1

BBDR/Wor rats = details: cited from earlier work
[3] = test system: dorsal root explants and cultured neurons; details: application to dorsal root explants and cultured neurons; cited from earlier work

polyinosine:polycytidylic acid [Poly I:C]
% Diabetic With Treatment (BBZDR/Wor rats [1]; Lean BBZDR/Wor rats): 0% | incidence of diabetes (BBZDR/Wor rats [1]; Lean and obese BBZDR/Wor rats together): no animals treated with poly I:C alone developed diabetes | % Diabetic With Treatment (BBZDR/Wor rats [1]; Obese BBZDR/Wor rats): 0% | animals that developed hyperglycemia (BBZDR/Wor rats [2]; lean female animals): 40% | animals that developed hyperglycemia (BBZDR/Wor rats [2]; obese females): 50% | induction of hyperglycemia (BBDR/Wor rats; low doses, poly I:C alone): do not induce hyperglycemia | incidence of diabetes (BBDR/Wor rats; poly I:C given just prior to KRV infection): ~100% | effect on axonal outgrowth [3]: inhibits axonal outgrowth
